Values of other authors as cited in US10925890B2, “Use of dextran sulfate” (TX MEDIC AB, priority 2014, dated 2021).

Tested on: angiogenesis
Details: cited from earlier work

Substance: dextran sulfate
- Effect on angiogenesis (U.S. Pat. No. 5,135,920): angiostatic

Substance: heparin
- Effect on angiogenesis in vivo (Glycobiology 3, 567-573 (1993), Pathophysiology of Haemostasis and Thrombosis 23, 141-149 (1993)): inhibited angiogenesis
